From patent publication US8722727B2, “Antifungal agents” (Seynix, Inc., priority 2008, dated 2014)

Target: T1, glucan synthase (GS) (Candida albicans, UniProt O13428)
T1 construct: Extraction of GS activity from membranes was performed at a protein concentration of 5 mg/mL in extraction buffer; endogenous in cells; host or cells: Candida albicans MY1055 (membrane fraction, detergent extraction, product entrapment)
Test: Glucan synthase inhibition (polymerization assay, 96-well)
Format: biochemical
Conditions: glucan synthase prepared from Candida albicans MY1055; 60 min incubation at 22° C.; read-out: Candida Albicans GS IC50 (ng/mL) (converted)
Procedure: The in vitro evaluation of glucan synthase inhibitory activity of compounds was measured in a polymerization assay in 96-well format. Each well contained 100 μL of ^3H-UDPG at 0.5 mM (6000 to 8000 dpm/nmol), 50 mM HEPES pH 7.5 (Sigma), 10% w/v glycerol (Sigma), 1.5 mg/mL bovine serum albumin (Sigma A 9647. Lot 44H0190), 25 mM KF (Fisher), 1 mM EDTA (Gibco ULTRAPURE), 25 μM GTP-γ-S, enzyme sufficient to give 3 to 6 nmoles incorporation during the 60 min incubation at 22° C., and test compound added from wells in 3-fold serial dilutions in 100% DMSO (1 μL/well). The reaction was stopped by the addition of 100 μL of 20% trichloroacetic acid. Plates were chilled for a minimum of 10 min, and precipitated glucan collected by filtration on GF/C plates (Packard UNIFILTER®-96), washed with 5 cycles of water (about 1 mL/well each cycle) using a Packard FILTERMATE HARVESTER. 40 μL/well scintillation fluid (Packard ULTIMA GOLD TM-XR) was added and the sealed plates counted in a WALLAC BETA counter in top-counting mode at an efficiency of approximately 40%.
Stock solutions were stored at 10 mg/mL in DMSO at −20° C. For each new enzyme preparation, the initial titration performed started at 1 mg/mL, which was prepared by making a 10-fold dilution in DMSO (5 μL to 50 μL). 40 μL of this stock was placed in column 12 of a round-bottomed 96-well microtiter plate. 40 μL DMSO was added to columns 1 to 11 in the same row and ten 3-fold serial dilutions performed, by transferring 20 μL from column 12 to column 11 etc., with 4 mixings before each transfer. No test compound was transferred to from column 2 to column 1. Duplicate aliquots of 1 μL of all 12 dilutions were then transferred to the side walls of a 96-well Bioblock 1.1 mL plate (Fisher brand) to create two rows. Graphs of the primary data were created in PRISM software (the average of two determinations) using PRISM's curve fitting program (sigmoidal dose response non-linear regression). The amount of compound required to inhibit glucan synthase activity by 50% in this assay (IC50-ng/mL) was calculated.
Routine analysis was performed with glucan synthase (GS) prepared from Candida albicans MY1055 by the following procedure: MY1055 was grown in 10 liters YPD medium (10 g yeast extract, 20 g tryptone, 20 g glucose per liter) with vigorous shaking at 30° C., to early stationary phase. Cells were harvested by centrifugation, the pellet was washed and frozen at −70° C. until breakage. Thawed pellets were shaken with an equal volume of breakage buffer (50 mM HEPES pH 7.4, 10% glycerol, 1 mM EDTA, 1 mM PMSF, 1 mM DTT) and 4 times their weight of 0.5 mm acid washed glass beads for 2 hours at 4° C. Extent of breakage was assessed visually at 40× magnification. After low speed centrifugation to remove cell debris, the supernatant was centrifuged at 100,000×g for 60 min. to separate membranes plus ribosomes from cytoplasmic components. Membranes were further washed two additional times with breakage buffer using the same centrifugation conditions and finally suspended in breakage buffer at 25 to 30 mg/mL protein (Biorad) for storage at −70° C. Extraction of GS activity from membranes was performed at a protein concentration of 5 mg/mL in extraction buffer (50 mM NaPO4 pH 7.5, 0.1 M KCl, 0.1M Na citrate, 20% glycerol, 5 μM GTP-γ-S, 1 mM DTT, 1 mM PMSF, 3 μg/mL pepstatin) plus 0.25% W1 by gentle mixing at 4° C. for 60 min, followed by centrifugation at 100,000×g for 60 min. After centrifugation, clear supernatant was removed from a pellet consisting of a hard layer usually with small amounts of gelatinous unextracted membranes above it.
Trapping was initiated immediately by 5-fold dilution in trapping buffer (50 mM HEPES pH 7.5, 10 mM KF, 1 mM EDTA, 2 mg/mL BSA) plus 2.5 mM UDPG and 10 μM GTP-γ-S. After incubation at 25° C. for 60 to 90 minutes, glucan was harvested by low speed centrifugation (3,000×g, 10 min). […]

T1 sequence (O13428 1-1897): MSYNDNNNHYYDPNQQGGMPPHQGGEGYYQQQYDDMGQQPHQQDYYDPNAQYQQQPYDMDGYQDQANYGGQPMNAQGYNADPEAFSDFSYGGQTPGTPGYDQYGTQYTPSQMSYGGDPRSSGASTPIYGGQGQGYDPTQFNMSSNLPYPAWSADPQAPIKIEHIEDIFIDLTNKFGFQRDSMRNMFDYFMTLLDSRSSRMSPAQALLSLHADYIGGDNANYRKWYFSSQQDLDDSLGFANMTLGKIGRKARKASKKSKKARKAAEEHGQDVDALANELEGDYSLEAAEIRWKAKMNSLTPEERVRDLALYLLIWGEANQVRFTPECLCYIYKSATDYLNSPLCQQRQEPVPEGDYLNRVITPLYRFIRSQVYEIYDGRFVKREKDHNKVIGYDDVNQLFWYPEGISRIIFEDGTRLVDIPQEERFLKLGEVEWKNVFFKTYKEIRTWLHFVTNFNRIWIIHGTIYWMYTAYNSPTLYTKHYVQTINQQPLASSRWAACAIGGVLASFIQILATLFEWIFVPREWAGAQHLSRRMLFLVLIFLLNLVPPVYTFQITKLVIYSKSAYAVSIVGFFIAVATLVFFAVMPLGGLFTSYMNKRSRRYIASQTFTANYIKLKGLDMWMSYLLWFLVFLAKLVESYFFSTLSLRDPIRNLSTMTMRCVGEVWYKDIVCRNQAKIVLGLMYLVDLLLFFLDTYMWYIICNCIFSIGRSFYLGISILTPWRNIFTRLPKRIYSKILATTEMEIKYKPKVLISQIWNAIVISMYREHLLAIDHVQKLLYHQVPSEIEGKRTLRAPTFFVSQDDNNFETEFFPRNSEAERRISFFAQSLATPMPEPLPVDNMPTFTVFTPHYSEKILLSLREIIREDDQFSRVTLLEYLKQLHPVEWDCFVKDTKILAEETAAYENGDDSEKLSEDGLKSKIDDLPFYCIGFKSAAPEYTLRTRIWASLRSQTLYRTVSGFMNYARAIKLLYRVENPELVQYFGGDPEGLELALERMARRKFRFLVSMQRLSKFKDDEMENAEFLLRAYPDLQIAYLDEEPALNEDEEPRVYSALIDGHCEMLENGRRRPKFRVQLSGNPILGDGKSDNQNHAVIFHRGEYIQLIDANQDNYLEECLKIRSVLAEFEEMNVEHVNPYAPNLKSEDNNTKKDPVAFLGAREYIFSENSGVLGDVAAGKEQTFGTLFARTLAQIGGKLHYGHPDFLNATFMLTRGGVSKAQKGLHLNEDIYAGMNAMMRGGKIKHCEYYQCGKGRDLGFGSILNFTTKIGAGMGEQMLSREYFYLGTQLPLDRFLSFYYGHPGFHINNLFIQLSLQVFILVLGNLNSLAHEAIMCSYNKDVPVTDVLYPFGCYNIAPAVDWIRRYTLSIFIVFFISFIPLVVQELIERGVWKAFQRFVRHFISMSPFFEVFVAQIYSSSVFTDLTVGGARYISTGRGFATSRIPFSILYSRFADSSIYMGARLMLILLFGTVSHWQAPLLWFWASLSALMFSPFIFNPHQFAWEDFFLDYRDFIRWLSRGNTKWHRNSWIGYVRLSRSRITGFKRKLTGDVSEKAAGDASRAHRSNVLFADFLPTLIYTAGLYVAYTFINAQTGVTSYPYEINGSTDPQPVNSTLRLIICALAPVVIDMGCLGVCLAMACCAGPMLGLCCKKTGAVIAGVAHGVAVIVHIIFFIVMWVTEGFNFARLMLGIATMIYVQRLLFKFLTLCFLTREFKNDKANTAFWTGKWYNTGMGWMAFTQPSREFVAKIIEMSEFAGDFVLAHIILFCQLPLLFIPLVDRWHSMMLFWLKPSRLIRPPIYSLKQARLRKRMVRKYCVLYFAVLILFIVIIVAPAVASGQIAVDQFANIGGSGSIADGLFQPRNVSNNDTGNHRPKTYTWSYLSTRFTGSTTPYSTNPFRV
T1 sequence (O42825 1-195 partner limits assumed): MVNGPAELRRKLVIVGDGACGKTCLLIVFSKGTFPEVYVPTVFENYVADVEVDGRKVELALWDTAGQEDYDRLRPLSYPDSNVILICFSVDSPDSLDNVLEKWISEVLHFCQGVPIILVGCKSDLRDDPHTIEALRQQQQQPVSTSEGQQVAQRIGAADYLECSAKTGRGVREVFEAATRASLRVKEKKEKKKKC

SMILES	IC50 [nM]
CC(C)[C@@H](C)[C@@]1(C)CC[C@]2(C)[C@H]3CC[C@@H]4[C@@]5(COC[C@@]4(C)[C@@H](OC[C@H](N)C(C)(C)C)[C@H](n4nnc(N)n4)C5)C3=CC[C@@]2(C)[C@@H]1C(=O)O [Example 22, (1S,4aR,6aS,7R;8R,10aR,10bR,12aR,14R,15R)-15-[[(2R)-2-amino-3,3-dimethylbutyl]oxy]-14-(5-amino-2H-tetrazol-2-yl)-8-[(1R)-1,2-dimethylpropyl]-1,6,6a,7,8,9,10,10a,10b,11,12,12a-dodecahydro-1,6a,8,10a-tetramethyl-4H-1,4a-propano-2H-phenanthro[1,2-c]pyran-7-carboxylic acid]	6.11
CCC(N)(CC)CO[C@H]1[C@H](n2nnc(N)n2)C[C@@]23COC[C@]1(C)[C@@H]2CC[C@H]1C3=CC[C@@]2(C)[C@H](C(=O)O)[C@@](C)([C@H](C)C(C)C)CC[C@]12C [Example 23, (1S,4aR,6aS,7R,8R,10aR,10bR,12aR,14R,15R)-15-(2-amino-2-ethylbutoxy)-14-(5-amino-2H-tetrazol-2-yl)-8-[(1R)-1,2-dimethylpropyl]-1,6,6a,7,8,9,10,10a,10b,11,12,12a-dodecahydro-1,6a,8,10a-tetramethyl-4H-1,4a-propano-2H-phenanthro[1,2-c]pyran-7-carboxylic acid]	7.63
CC(C)[C@@H](C)[C@@]1(C)CC[C@]2(C)[C@H]3CC[C@@H]4[C@@]5(COC[C@@]4(C)[C@@H](OCCC4(N)CCCC4)[C@H](n4nnc(N)n4)C5)C3=CC[C@@]2(C)[C@@H]1C(=O)O [Example 25, (1S,4aR,6aS,7R,8R,10aR,10bR,12aR,14R,15R)-15-[2-(1-aminocyclopentyl)ethoxy]-14-(5-amino-2H-tetrazol-2-yl)-8-[(1R)-1,2-dimethylpropyl]-1,6,6a,7,8,9,10,10a,10b,11,12,12a-dodecahydro-1,6a,8,10a-tetramethyl-4H-1,4a-propano-2H-phenanthro[1,2-c]pyran-7-carboxylic acid]	40.5
CNC1(CO[C@H]2[C@H](n3nnc(N)n3)C[C@@]34COC[C@]2(C)[C@@H]3CC[C@H]2C4=CC[C@@]3(C)[C@H](C(=O)O)[C@@](C)([C@H](C)C(C)C)CC[C@]23C)CCOCC1 [Example 27, (1S,4aR,6aS,7R,8R,10aR,10bR,12aR,14R,15R)-14-(5-amino-2H-tetrazol-2-yl)-8-[(1R)-1,2-dimethylpropyl]-15-[[tetrahydro-4-(methylamino)-2H-pyran-4-yl]methoxy]-1,6,6a,7,8,9,10,10a,10b,11,12,12a-dodecahydro-1,6a,8,10a-tetramethyl-4H-1,4a-propano-2H-phenanthro[1,2-c]pyran-7-carboxylic acid]	5.86
CC(C)[C@@H](C)[C@@]1(C)CC[C@]2(C)[C@H]3CC[C@@H]4[C@@]5(COC[C@@]4(C)[C@@H](OCC4(N)CCSCC4)[C@H](n4nnc(N)n4)C5)C3=CC[C@@]2(C)[C@@H]1C(=O)O [Example 30, (1S,4aR,6aS,7R,8R,10aR,10bR,12aR,14R,15R)-15-[(4-aminotetrahydro-2H-thiopyran-4-yl)methoxy]-14-(5-amino-2H-tetrazol-2-yl)-8-[(1R)-1,2-dimethylpropyl]-1,6,6a,7,8,9,10,10a,10b,11,12,12a-dodecahydro-1,6a,8,10a-tetramethyl-4H-1,4a-propano-2H-phenanthro[1,2-c]pyran-7-carboxylic acid]	2.92
CNC1(CO[C@H]2[C@H](n3nnc(N)n3)C[C@@]34COC[C@]2(C)[C@@H]3CC[C@H]2C4=CC[C@@]3(C)[C@H](C(=O)O)[C@@](C)([C@H](C)C(C)C)CC[C@]23C)CCCCC1 [Example 32, (1S,4aR,6aS,7R,8R,10aR,10bR,12aR,14R,15R)-14-(5-amino-2H-tetrazol-2-yl)-8-[(1R)-1,2-dimethylpropyl]-15-[[1-(methylamino)cyclohexyl]methoxy]-1,6,6a,7,8,9,10,10a,10b,11,12,12a-dodecahydro-1,6a,8,10a-tetramethyl-4H-1,4a-propano-2H-phenanthro[1,2-c]pyran-7-carboxylic acid]	11.7
CC(C)[C@@H](C)[C@@]1(C)CC[C@]2(C)[C@H]3CC[C@@H]4[C@@]5(COC[C@@]4(C)[C@@H](OCCNCCCN(C)C)[C@H](n4nnc(N)n4)C5)C3=CC[C@@]2(C)[C@@H]1C(=O)O [Example 36, (1S,4aR,6aS,7R,8R,10aR,10bR,12aR,14R,15R)-14-(5-amino-2H-tetrazol-2-yl)-15-[2-[[3-(dimethylamino)propyl]amino]ethoxy]-8-[(1R)-1,2-dimethylpropyl]-1,6,6a,7,8,9,10,10a,10b,11,12,12a-dodecahydro-1,6a,8,10a-tetramethyl-4H-1,4a-propano-2H-phenanthro[1,2-c]pyran-7-carboxylic acid]	8.77
CC(=O)Nc1nnnn1[C@@H]1C[C@@]23COC[C@](C)([C@@H]2CC[C@H]2C3=CC[C@@]3(C)[C@H](C(=O)O)[C@@](C)([C@H](C)C(C)C)CC[C@]23C)[C@H]1OC[C@](C)(N)C(C)C [Example 38A, (1S,4aR,6aS,7R,8R,10aR,10bR,12aR,14R,15R)-14-[5-(acetylamino)-1H-tetrazol-1-yl]-15-[[(2R)-2-amino-2,3-dimethylbutyl]oxy]-8-[(1R)-1,2-dimethylpropyl]-1,6,6a,7,8,9,10,10a,10b,11,12,12a-dodecahydro-1,6a,8,10a-tetramethyl-4H-1,4a-propano-2H-phenanthro[1,2-c]pyran-7-carboxylic acid]	81.8
CN[C@@](C)(CO[C@H]1[C@H](n2nnc(NC(C)=O)n2)C[C@@]23COC[C@]1(C)[C@@H]2CC[C@H]1C3=CC[C@@]2(C)[C@H](C(=O)O)[C@@](C)([C@H](C)C(C)C)CC[C@]12C)C(C)C [Example 39B, (1S,4aR,6aS,7R,8R,10aR,10bR,12aR,14R,15R)-14-[5-(acetylamino)-2H-tetrazol-2-yl]-15-[[(2R)-2,3-dimethyl-2-(methylamino)butyl]oxy]-8-[(1R)-1,2-dimethylpropyl]-1,6,6a,7,8,9,10,10a,10b,11,12,12a-dodecahydro-1,6a,8,10a-tetramethyl-4H-1,4a-propano-2H-phenanthro[1,2-c]pyran-7-carboxylic acid]	15.5
Cc1nnnn1[C@@H]1C[C@@]23COC[C@](C)([C@@H]2CC[C@H]2C3=CC[C@@]3(C)[C@H](C(=O)O)[C@@](C)([C@H](C)C(C)C)CC[C@]23C)[C@H]1OCCN [Example 41A, (1S,4aR,6aS,7R,8R,10aR,10bR,12aR,14R,15R)-15-(2-aminoethoxy)-8-[(1R)-1,2-dimethylpropyl]-14-(5-methyl-1H-tetrazol-1-yl)-1,6,6a,7,8,9,10,10a,10b,11,12,12a-dodecahydro-1,6a,8,10a-tetramethyl-4H-1,4a-propano-2H-phenanthro[1,2-c]pyran-7-carboxylic acid]	199
